From PubChem BioAssay AID2048 (NMMLSC, 2009)
Activity calls are given as the source filed them.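 Rule for the calls: active = EC50 at most 30 µM plus a dose-response curve spanning at least 25% response; inactive = the rest.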

Molecular target: Ras-related C3 botulinum toxin substrate 1 (Homo sapiens) (UniProt P63000)
Assay: activated mutant Rac1 GTP binding inhibitors, SAR follow-up, biochemical, pyrazoline analogs, multiplex bead flow cytometry (AID 2048)
Settings: Bead-based flow cytometry, Bodipy-FL-GTP binding to GST-Rac1; for Ki: measured here: Ki calculated from EC50

| SMILES | EC50 | Ki |
| --- | --- | --- |
| COc1ccc(C2CC(c3ccccc3Cl)=NN2c2ccc(S(N)(=O)=O)cc2)cc1 (stereo not given) | inactive | – |
| COc1ccc(C2CC(c3ccccc3)=NN2c2ccc(S(N)(=O)=O)cc2)cc1OC (stereo not given) | inactive | – |
| COc1ccc(C2CC(c3cccc(Br)c3)=NN2c2ccc(S(N)(=O)=O)cc2)cc1 (stereo not given) | inactive | – |
| COc1ccc(C2CC(c3cccc(F)c3)=NN2c2ccc(S(N)(=O)=O)cc2)cc1 (stereo not given) | inactive | – |
| COc1ccc(C2CC(c3ccc(C)cc3)=NN2c2ccc(S(N)(=O)=O)cc2)cc1 (stereo not given) | inactive | – |
| NS(=O)(=O)c1ccc(N2N=C(c3ccccc3)CC2c2ccc(Cl)cc2)cc1 (stereo not given) | inactive | – |
| NS(=O)(=O)c1ccc(N2N=C(c3ccccc3)CC2c2cccc(Cl)c2)cc1 (stereo not given) | inactive | – |
| COc1ccc(C2=NN(c3cccc(F)c3)C(c3ccc(OC)cc3)C2)cc1 (stereo not given) | inactive | – |
| COc1ccc(C2CC(c3ccccc3)=NN2c2ccc(Cl)c(C(=O)O)c2)cc1OC (stereo not given) | inactive | – |
| Cc1ccccc1N1N=C(c2ccccc2)CC1c1cccc([N+](=O)[O-])c1 (stereo not given) | inactive | – |
| COc1ccc(C2CC(c3ccccc3)=NN2c2ccc(C(N)=O)cc2)cc1 (stereo not given) | inactive | – |
| COc1ccc(C2CC(c3ccc(C(F)(F)F)cc3)=NN2c2ccc(S(N)(=O)=O)cc2)cc1 (stereo not given) | inactive | – |
| COc1ccc(C2CC(c3ccc(Cl)cc3)=NN2c2ccc(S(N)(=O)=O)cc2)cc1 (stereo not given) | inactive | – |
| COc1ccc(C2CC(c3ccccc3)=NN2c2cccc(S(N)(=O)=O)c2)cc1 (stereo not given) | inactive | – |
| CN(C)c1ccc(C2CC(c3ccc(F)cc3)=NN2c2ccccc2)cc1 (stereo not given) | inactive | – |
| CCc1ccc(C2=NN(c3ccc(S(N)(=O)=O)cc3)C(c3ccc(F)cc3)C2)cc1 (stereo not given) | inactive | – |
| O=C(O)c1ccc(N2N=C(c3ccccc3)CC2c2ccccc2)cc1 (stereo not given) | inactive | – |
| COc1ccc(C2=NN(c3ccccc3)C(c3ccccc3C(F)(F)F)C2)cc1 (stereo not given) | inactive | – |
| COc1ccc(C2=NN(c3ccc(Cl)c(Cl)c3)C(c3ccc(OC)cc3)C2)cc1 (stereo not given) | inactive | – |
| O=[N+]([O-])c1ccc(N2N=C(c3ccccc3)CC2c2ccc(O)cc2)cc1 (stereo not given) | inactive | – |
| Clc1cccc(N2N=C(c3ccccc3)CC2c2ccccc2)c1 (stereo not given) | inactive | – |
| NS(=O)(=O)c1ccc(N2N=C(c3ccccc3)CC2c2ccccc2)cc1 (stereo not given) | inactive | – |
| COc1ccc(C2CC(c3ccccc3Br)=NN2c2ccc(S(N)(=O)=O)cc2)cc1 (stereo not given) | inactive | 40 nM |

| SMILES | EC50 | Ki |
| --- | --- | --- |
| COc1ccc(C2CC(c3ccc(Br)cc3)=NN2c2ccc(S(N)(=O)=O)cc2)cc1 (stereo not given) | inactive | – |
| NS(=O)(=O)c1ccc(N2N=C(c3ccc(Br)cc3)CC2c2ccc(F)cc2)cc1 (stereo not given) | inactive | – |
| COc1ccc(C2CC(c3ccccc3)=NN2c2ccc(C(=O)O)cc2)cc1 (stereo not given) | inactive | – |
| COc1ccc(C2CC(c3ccsc3)=NN2c2ccc(S(N)(=O)=O)cc2)cc1 (stereo not given) | inactive | – |
| COc1ccc(C2CC(c3ccccc3C)=NN2c2ccc(S(N)(=O)=O)cc2)cc1 (stereo not given) | inactive | – |
| CN(C)c1ccc(C2CC(c3ccc(Cl)cc3)=NN2c2ccccc2)cc1 (stereo not given) | inactive | – |
| O=S(=O)(O)c1ccc(N2N=C(c3ccccc3)CC2c2ccccc2)cc1 (stereo not given) | inactive | – |
| NS(=O)(=O)c1ccc(N2N=C(c3ccccc3)CC2c2ccc(Br)cc2)cc1 (stereo not given) | inactive | – |
| COc1ccc(C2CC(c3ccccc3)=NN2c2ccc([N+](=O)[O-])cc2)cc1 (stereo not given) | inactive | – |
| Cc1ccccc1N1N=C(c2ccccc2)CC1c1ccc(N(C)C)cc1 (stereo not given) | inactive | – |
| COc1ccc(C2CC(c3ccccc3C(F)(F)F)=NN2c2ccc(S(N)(=O)=O)cc2)cc1 (stereo not given) | inactive | – |
| NS(=O)(=O)c1ccc(N2N=C(c3ccc(Cl)cc3)CC2c2ccccc2)cc1 (stereo not given) | inactive | – |
| COc1ccc(C2CC(c3ccccc3)=NN2c2ccc(Cl)c(C(=O)O)c2)cc1 (stereo not given) | inactive | – |
| O=[N+]([O-])c1ccc(N2N=C(c3ccccc3)CC2c2ccccc2)cc1 (stereo not given) | inactive | – |
| Cc1ccc(C2CC(c3ccccc3)=NN2c2ccc(S(N)(=O)=O)cc2)cc1 (stereo not given) | inactive | – |
| NS(=O)(=O)c1ccc(N2N=C(c3ccccc3)CC2c2ccccc2Br)cc1 (stereo not given) | inactive | – |
| COc1ccc(C2=NN(c3ccc(Cl)cc3)C(c3ccccc3F)C2)cc1 (stereo not given) | inactive | 3260 nM |
| COc1ccc(C2CC(c3ccncc3)=NN2c2ccc(S(N)(=O)=O)cc2)cc1 (stereo not given) | inactive | – |
| COc1ccc(C2=NN(c3ccc(S(N)(=O)=O)cc3)C(c3ccc(OC)cc3)C2)cc1 (stereo not given) | inactive | – |
| COc1ccc(C2CC(c3cccnc3)=NN2c2ccc(S(N)(=O)=O)cc2)cc1 (stereo not given) | inactive | – |
| Cc1cccc(N2N=C(c3ccccc3)CC2c2ccccc2)c1 (stereo not given) | inactive | – |
| O=[N+]([O-])c1cccc(C2CC(c3ccccc3)=NN2c2ccccc2)c1 (stereo not given) | inactive | – |
| COc1ccc(C2=NN(c3ccccc3)C(c3ccc(Cl)cc3)C2)cc1 (stereo not given) | inactive | 840 nM |

| SMILES | EC50 | Ki |
| --- | --- | --- |
| Cc1ccccc1C1CC(c2ccccc2)=NN1c1ccc(S(N)(=O)=O)cc1 (stereo not given) | inactive | – |
| COc1ccc(C2CC(c3ccc(F)cc3)=NN2c2cccc(F)c2)cc1OC (stereo not given) | inactive | 3030 nM |
| COc1ccccc1C1CC(c2ccccc2)=NN1c1ccc(S(N)(=O)=O)cc1 (stereo not given) | inactive | – |
| COc1ccc(C2CC(c3ccc(N(C)C)cc3)=NN2c2ccc(S(N)(=O)=O)cc2)cc1 (stereo not given) | inactive | – |
| NS(=O)(=O)c1ccc(N2N=C(c3ccccc3)CC2c2cccc(Br)c2)cc1 (stereo not given) | inactive | – |
| Fc1ccccc1C1CC(c2ccc(Br)cc2)=NN1c1ccc(Br)cc1 (stereo not given) | inactive | – |
| COc1ccc(C2CC(C)=NN2c2ccc(S(N)(=O)=O)cc2)cc1 (stereo not given) | inactive | 10 nM |
| COc1ccc(C2CC(c3ccccc3OC)=NN2c2ccc(S(N)(=O)=O)cc2)cc1 (stereo not given) | inactive | – |
| Cc1ccc(-c2cc(C(F)(F)F)nn2-c2ccc(S(N)(=O)=O)cc2)cc1 | inactive | 3910 nM |
| COc1ccc(C2=NN(c3ccccc3F)C(c3ccc(F)cc3)C2)cc1 (stereo not given) | inactive | – |
| COc1ccc(C2CC(c3ccc(F)cc3)=NN2c2ccc(S(N)(=O)=O)cc2)cc1 (stereo not given) | inactive | – |
| COc1ccc(C2CC(c3cccc(N(C)C)c3)=NN2c2ccc(S(N)(=O)=O)cc2)cc1 (stereo not given) | inactive | – |
| Fc1ccc(C2=NN(c3cccc(Br)c3)C(c3ccccc3)C2)cc1 (stereo not given) | inactive | – |
| COc1ccc(C2CC(c3cccc(C(F)(F)F)c3)=NN2c2ccc(S(N)(=O)=O)cc2)cc1 (stereo not given) | inactive | – |
| COc1ccc(C2CC(c3ccc(Cl)cc3)=NN2c2ccccc2)cc1OC (stereo not given) | inactive | 10 nM |
| FC(F)(F)c1cccc(N2N=C(c3ccc(Cl)cc3)CC2c2ccccc2Cl)c1 (stereo not given) | inactive | – |
| NS(=O)(=O)c1ccc(N2N=C(c3ccccc3)CC2c2ccccc2Cl)cc1 (stereo not given) | inactive | – |
| COc1ccc(C2CC(c3ccc(F)cc3)=NN2c2cc(Cl)ccc2Cl)cc1 (stereo not given) | inactive | – |
| CC(=O)Oc1ccc(C2=NN(c3ccccc3)C(c3ccccc3)C2)cc1 (stereo not given) | inactive | – |
| COc1ccc(C2=NN(c3cccc(F)c3)C(c3ccc(Cl)cc3)C2)cc1 (stereo not given) | inactive | – |
| FC(F)(F)c1ccccc1C1CC(c2ccc(Br)cc2)=NN1c1ccccc1 (stereo not given) | inactive | – |
| COc1ccc(C2CC(C(C)(C)C)=NN2c2ccc(S(N)(=O)=O)cc2)cc1 (stereo not given) | inactive | – |
| CN(C)c1ccc(C2CC(c3ccccc3)=NN2c2ccccc2)cc1 (stereo not given) | inactive | – |

| SMILES | EC50 | Ki |
| --- | --- | --- |
| COc1ccccc1C1CC(c2ccccc2)=NN1c1ccccc1 (stereo not given) | inactive | – |
| COc1ccc(C2CC(c3ccccc3F)=NN2c2ccc(S(N)(=O)=O)cc2)cc1 (stereo not given) | inactive | – |
| Brc1ccc(N2N=C(c3ccccc3)CC2c2ccccc2)cc1 (stereo not given) | inactive | – |
| O=S(=O)(c1ccc(N2N=C(c3ccccc3)CC2c2ccccc2)cc1)C(F)F (stereo not given) | inactive | – |
| COc1ccc(C2CC(c3cccs3)=NN2c2ccc(S(N)(=O)=O)cc2)cc1 (stereo not given) | inactive | – |
| COc1ccc(C2CC(c3cccc(C)c3)=NN2c2ccc(S(N)(=O)=O)cc2)cc1 (stereo not given) | inactive | – |
| COc1ccc(C2CC(c3ccc(F)cc3)=NN2c2ccccc2)cc1OC (stereo not given) | inactive | – |
| COc1ccc(C2CC(C3CCCCC3)=NN2c2ccc(S(N)(=O)=O)cc2)cc1 (stereo not given) | inactive | – |
| COc1ccc(-c2cc(-c3ccccc3)nn2-c2ccc(S(N)(=O)=O)cc2)cc1 | inactive | – |
| COc1ccc(C2CC(c3cccc(OC)c3)=NN2c2ccc(S(N)(=O)=O)cc2)cc1 (stereo not given) | inactive | – |
| COc1cccc(C2CC(c3ccccc3)=NN2c2ccc(S(N)(=O)=O)cc2)c1 (stereo not given) | inactive | – |
| O=S(=O)(c1ccc(N2N=C(c3ccc(Br)cc3)CC2c2ccccc2)cc1)C(F)F (stereo not given) | inactive | 790 nM |
| O=[N+]([O-])c1cccc(C2CC(c3ccc(F)cc3)=NN2c2ccccc2)c1 (stereo not given) | inactive | – |
| COc1ccc(C2=NN(c3ccccc3)C(c3ccc(OC)c(OC)c3C(=O)O)C2)cc1 (stereo not given) | inactive | – |
| CN(C)c1ccc(C2CC(c3ccc(Br)cc3)=NN2c2ccccc2)cc1 (stereo not given) | inactive | – |
| Cc1onc(-c2ccccc2)c1-c1ccc(S(N)(=O)=O)cc1 | inactive | – |
| Clc1ccc(N2N=C(c3ccccc3)CC2c2ccccc2)cc1 (stereo not given) | inactive | – |
| CN(C)c1ccc(C2CC(c3ccccc3)=NN2c2ccc([N+](=O)[O-])cc2)cc1 (stereo not given) | inactive | – |
| COc1ccccc1N1N=C(c2ccccc2)CC1c1ccccc1 (stereo not given) | inactive | – |
| Cc1cccc(C2CC(c3ccccc3)=NN2c2ccc(S(N)(=O)=O)cc2)c1 (stereo not given) | inactive | – |
| COc1ccc(C2CC(c3ccc(Br)cc3)=NN2c2ccccc2Cl)cc1 (stereo not given) | inactive | 60 nM |
| COc1ccc(C2CC(c3cccc(Cl)c3)=NN2c2ccc(S(N)(=O)=O)cc2)cc1 (stereo not given) | inactive | – |
